What was measured:
Experiment in all cases: AUC of viability dose-response curve (% viability x log10 dose units); higher = less sensitive
Conditions in all cases: 48 h
P12-Ichikawa = tested on: P12-Ichikawa
Summary of the method: (§1)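 Leukemia cells adapted to each medium were seeded at 500 or 1000 cells/well in 1536-well plates and dosed with library compounds in DMSO at 11 threefold doses from 47 μM to 0.79 nM for 48 h at 37°C. CellTiter-Glo One luminescence was normalised per plate to DMSO and cell-free wells, then fitted with a four-parameter log-logistic model over log10 doses. Area under the curve was taken from this fit by the trapezoidal rule, with curves above full viability scaled and curves failing quality control removed.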

SEM cells = tested on: SEM cells
Summary of the method: as §1

NOMO1 = tested on: NOMO1
Summary of the method: as §1

[1] = RPMI 5 mM glucose + 10% dialyzed FBS

| SMILES | AUC of viability dose-response curve (P12-Ichikawa; HPLM + 10% dialyzed FBS) | AUC of viability dose-response curve (P12-Ichikawa; RPMI 5 mM glucose + 10% FBS) | AUC of viability dose-response curve (P12-Ichikawa; [1]) | AUC of viability dose-response curve (SEM cells; HPLM + 10% dialyzed FBS) | AUC of viability dose-response curve (SEM cells; RPMI 5 mM glucose + 10% FBS) | AUC of viability dose-response curve (SEM cells; [1]) | AUC of viability dose-response curve (NOMO1; HPLM + 10% dialyzed FBS) | AUC of viability dose-response curve (NOMO1; RPMI 5 mM glucose + 10% FBS) | AUC of viability dose-response curve (NOMO1; [1]) |
| --- | --- | --- | --- | --- | --- | --- | --- | --- | --- |
| Clc1cc(Cl)cc(CNc2ncncc2-c2ccc3c(c2)OCO3)c1 | 431 | 429 | 450 | 441 | 437 | 435 | 414 | 412 | 418 |
| ClC1=CC(=CC=C1)N2CCN(CCCN3\N=C4\C=C/C=C\N4C3=O)CC2 | 453 | 473 | 468 | 419 | 446 | 464 | 465 | 453 | 451 |
| CCc1c(C(=O)C(N)=O)c2c(OCC(=O)O)cccc2n1Cc1ccccc1 | 471 | 460 | 452 | 462 | 464 | 461 | 442 | 465 | 463 |
| CC(C)(C)C(=O)Oc1ccc([S+](=O)([O-])Nc2ccccc2C(=O)NCC(=O)O)cc1 | 416 | 423 | 420 | 465 | 436 | 471 | 428 | 437 | 443 |
| CC(C)[C@@H](C[S+](=O)([O-])C(C)C)N1C(=O)[C@@](C)(CC(=O)O)C[C@H](c2cccc(Cl)c2)[C@H]1c1ccc(Cl)cc1 | 278 | 320 | 335 | 355 | 289 | 360 | 306 | 357 | 362 |
| CN1CCC(CC1)COC2=CN=C(N=C2)C3=CC(=CC=C3)CN4/N=C(\C=C/C4=O)C5=CC(=CC=C5)C#N | 472 | 465 | 464 |  |  |  | 468 | 464 | 471 |
| c1cc(CN2CCCNCCNCCCNCC2)ccc1CN1CCCNCCNCCCNCC1 |  |  |  | 390 | 387 | 416 |  |  |  |
| C[C@@H]1CN[C@H]2[C@@H](C)[C@@]\3(CC[C@H]\4[C@@H]5C/C=C6/C[C@@H](O)CC[C@]6(C)[C@H]5CC4=C3C)O[C@@H]2C1 | 454 | 441 | 449 | 460 | 462 | 469 | 449 | 460 | 451 |
| CN1\C(=C(\O)C2=C(C=CS2)[S+]1([O-])=O)C(=O)NC3=CC=CC=N3 | 465 | 449 | 459 | 467 | 474 | 475 | 450 | 453 | 455 |
| COc1cc2c(Nc3ccc(Cl)c(Cl)c3F)ncnc2cc1OC[C@@H]1C[C@@H]2CN(C)C[C@@H]2C1 | 388 | 388 | 401 | 383 | 358 | 379 | 355 | 437 | 418 |
| CC\1=C(C(=O)N(\C=C1)C2=CC=C(C=C2)C3=NC=CO3)/C4=CC5=CN=C(N)N=C5C=C4 | 472 | 467 | 465 | 383 | 387 | 350 | 470 | 456 | 472 |
| CCOC(=O)[C@H](CCc1ccccc1)N[C@@H](C)C(=O)N1CCC[C@H]1C(=O)O | 452 | 447 | 465 | 462 | 470 | 434 | 453 | 437 | 461 |
| OC[C@H]1O[C@H]([C@@H](F)[C@@H]1O)N2\C=C/C(=O)NC2=O | 460 | 475 | 449 | 454 | 463 | 432 | 470 | 430 | 464 |
| CC(=O)NC(CS)C(=O)O (stereo not drawn) | 369 | 354 | 359 |  |  |  | 376 | 352 | 377 |
| Cn1cc(-c2ccc3nnc(C(F)(F)c4ccc5ncccc5c4)n3n2)cn1 | 447 | 452 | 454 | 463 | 469 | 455 | 469 | 435 | 470 |
| N=C(N)NC(=O)c1nc(Cl)c(N)nc1N | 389 | 393 | 430 | 446 | 464 | 453 | 364 | 342 | 365 |
| O=C1Nc2ccc(Cl)cc2[C@@](C#CC2CC2)(C(F)(F)F)O1 | 430 | 395 | 378 | 413 | 389 | 375 | 381 | 364 | 437 |
| CC1(C)C(=O)N(CCN2CCC(C(=O)c3ccc(F)cc3)CC2)c2ccccc21 | 469 | 472 | 462 | 471 | 455 | 471 | 468 | 465 | 459 |
| CC1=CC=CC=C1CN2C(=O)C/3=C(/CCN(CC4=CC=CC=C4)C3)N\5CC\N=C25 | 418 | 417 | 418 | 410 | 376 | 391 | 388 | 393 | 384 |
| C[S+](=O)([O-])N(Cc1ccco1)CC(O)Cn1c2ccccc2c2ccccc21 (stereo not drawn) | 436 | 414 | 409 | 407 | 396 | 381 | 421 | 415 | 417 |
| COc1cc2c(Oc3ccc(NC(=O)C4(C(=O)Nc5ccc(F)cc5)CC4)cc3F)ccnc2cc1OCCCN1CCOCC1 | 291 | 296 | 299 | 136 | 149 | 105 | 334 | 343 | 311 |
| CCCCNc1cc(C(=O)O)cc([S+](N)(=O)[O-])c1Oc1ccccc1 | 458 | 465 | 465 | 419 | 433 | 440 | 477 | 427 | 461 |

| SMILES | AUC of viability dose-response curve (P12-Ichikawa; HPLM + 10% dialyzed FBS) | AUC of viability dose-response curve (P12-Ichikawa; RPMI 5 mM glucose + 10% FBS) | AUC of viability dose-response curve (P12-Ichikawa; [1]) | AUC of viability dose-response curve (SEM cells; HPLM + 10% dialyzed FBS) | AUC of viability dose-response curve (SEM cells; RPMI 5 mM glucose + 10% FBS) | AUC of viability dose-response curve (SEM cells; [1]) | AUC of viability dose-response curve (NOMO1; HPLM + 10% dialyzed FBS) | AUC of viability dose-response curve (NOMO1; RPMI 5 mM glucose + 10% FBS) | AUC of viability dose-response curve (NOMO1; [1]) |
| --- | --- | --- | --- | --- | --- | --- | --- | --- | --- |
| CN(C)C(=O)c1ccc([S+](=O)([O-])c2ccc(NC(=O)[C@@](C)(O)C(F)(F)F)c(Cl)c2)cc1 | 455 | 448 | 446 | 472 | 417 | 444 | 411 | 425 | 451 |
| CC(C)Oc1cc(Nc2nc(N[C@@H](C)c3ccc(F)cn3)ncc2Cl)n[nH]1 | 344 | 349 | 366 | 319 | 310 | 291 | 449 | 409 | 412 |
| C1CCC(C(CC2CCCCN2)C2CCCCC2)CC1 (stereo not drawn) | 470 | 457 | 465 | 429 | 429 | 405 | 451 | 454 | 446 |
| CC(=O)OCC(=O)[C@@]12\N=C(C)/O[C@@H]1C[C@H]3[C@@H]4CCC/5=C/C(=O)/C=C\[C@]5(C)[C@H]4[C@@H](O)C[C@]23C | 436 | 427 | 415 | 404 | 432 | 444 | 470 | 468 | 462 |
| Cc1cccc(C)c1OCC(=O)N[C@@H](Cc1ccccc1)[C@@H](O)C[C@H](Cc1ccccc1)NC(=O)[C@H](C(C)C)N1CCCNC1=O | 443 | 448 | 414 | 391 | 435 | 435 | 443 | 418 | 422 |
| CCNC(=O)c1cc2c(-c3cc(OCCN4CCCC4)c(Cl)cc3Cl)nc(N)nc2s1 | 415 | 389 | 380 | 379 | 375 | 368 | 381 | 355 | 373 |
| COc1cc(Nc2ncc(F)c(Nc3ccc4c(n3)NC(=O)C(C)(C)O4)n2)cc(OC)c1OC | 373 | 386 | 384 |  |  |  | 379 | 392 | 404 |
| OC(=O)\C1=C\N(C2=CC=C(F)C=C2)C3=C(C=C(F)C(=C3)N4CCNCC4)C1=O | 457 | 464 | 452 | 446 | 476 | 448 | 447 | 475 | 451 |
| C[C@H]1C[C@H]2[C@@H]3CCC4=CC(=O)C=C[C@]4(C)[C@@]3(F)[C@@H](O)C[C@]2(C)[C@@]1(O)C(=O)CO | 362 | 322 | 303 | 358 | 338 | 305 | 429 | 470 | 459 |
| OC[C@H](Cc1ccccc1)Nc1nc(Oc2ccc3c(c2)CCC3)nc2c1ncn2Cc1ccc(-c2ccccc2)cc1 | 454 | 431 | 418 | 455 | 428 | 432 | 463 | 434 | 458 |
| CC[C@H]1/C=C\C=C/C[C@@H](C)[C@H](O)[C@@](C)(O)C(=O)[C@@H](C)[C@H](O)[C@@H](C)C(=O)[C@@H](C)[C@H](O)[C@@H](C)/C=C/C(=O)O[C@@H]2[C@H](C)[C@H](CC1)O[C@]1(CC[C@H](C)[C@H](C[C@@H](C)O)O1)[C@H]2C | 389 | 388 | 363 | 362 | 340 | 354 | 368 | 331 | 324 |
| NC(CO)(CO)CCc1ccc(Sc2cccc(OCc3ccccc3)c2)cc1Cl | 400 | 408 | 400 |  |  |  | 397 | 424 | 453 |
| C[C@@H]1COCCN1C\2=C\C(=O)N\3CC[C@H](N(CC4=CN=CC(=C4)Cl)C3=N2)C(F)(F)F | 417 | 409 | 415 | 391 | 404 | 397 | 430 | 418 | 400 |
| CC(=O)N1CCN(c2ccc(OCc3nn(C)c(C)c3-c3cccc4c(CCCOc5cccc6ccccc56)c(C(=O)O)n(Cc5cccnc5)c34)cc2)CC1 | 416 | 418 | 445 | 457 | 440 | 464 | 368 | 355 | 376 |
| OCc1ccc(-c2nn(Cc3ccccc3)c3ccccc23)o1 | 442 | 464 | 459 | 369 | 346 | 347 | 385 | 425 | 405 |
| CC(C)Nc1cc(C(F)(F)F)cc2nc(NC(=O)c3cccnc3)nn12 | 334 | 364 | 350 | 340 | 323 | 329 | 406 | 394 | 386 |
| CC(=O)CC(C1=CC=CC=C1)C/2=C(O)/C3=CC=CC=C3OC2=O (stereo not drawn) | 462 | 469 | 465 | 433 | 403 | 431 | 408 | 447 | 471 |
| CCN(CC)C(=S)SSC(=S)N(CC)CC | 366 | 363 | 362 |  |  |  | 375 | 365 | 361 |
| C[C@@H](O)[C@@H]1[C@H]2[C@@H](C)\C(=C(/N2C1=O)C(=O)OCOC(=O)C(C)(C)C)SC3CN(C3)/C4=N/CCS4 | 471 | 469 | 464 | 467 | 467 | 467 | 421 | 465 | 454 |
| NC1=NC=C(C=C1)C2=CC=C3N=CC\4=C(N(C(=O)\C=C4)C5=CC(=CC=C5)C(F)(F)F)C3=C2 |  |  |  |  |  |  | 191 | 214 | 194 |
| CO[C@H]1C[C@@H]2CC[C@@H](C)[C@@](O)(O2)C(=O)C(=O)N2CCCC[C@H]2C(=O)O[C@H]([C@H](C)C[C@@H]2CC[C@@H](OC(=O)C(C)(CO)CO)[C@H](OC)C2)CC(=O)[C@H](C)/C=C(\C)[C@@H](O)[C@@H](OC)C(=O)[C@H](C)C[C@H](C)/C=C/C=C/C=C/1C | 427 | 409 | 418 |  |  |  | 453 | 435 | 447 |
| CC(C)(C)c1cc(C=C(C#N)C#N)cc(Br)c1O | 453 | 452 | 452 |  |  |  | 473 | 471 | 456 |

Source: the supplement of paper PMC11451515
